Assays:
[1] = molecular target: T1, human GLUT2 (Homo sapiens, UniProt P11168); assay: [3H]-deoxy-D-glucose uptake assay, GLUT2; assay type: cell-based; conditions: [3H]-deoxy-D-glucose uptake in HEK293 cells stably expressing human GLUT2
T1 construct: expressed in transfected cells
T1 sequence (P11168 1-524): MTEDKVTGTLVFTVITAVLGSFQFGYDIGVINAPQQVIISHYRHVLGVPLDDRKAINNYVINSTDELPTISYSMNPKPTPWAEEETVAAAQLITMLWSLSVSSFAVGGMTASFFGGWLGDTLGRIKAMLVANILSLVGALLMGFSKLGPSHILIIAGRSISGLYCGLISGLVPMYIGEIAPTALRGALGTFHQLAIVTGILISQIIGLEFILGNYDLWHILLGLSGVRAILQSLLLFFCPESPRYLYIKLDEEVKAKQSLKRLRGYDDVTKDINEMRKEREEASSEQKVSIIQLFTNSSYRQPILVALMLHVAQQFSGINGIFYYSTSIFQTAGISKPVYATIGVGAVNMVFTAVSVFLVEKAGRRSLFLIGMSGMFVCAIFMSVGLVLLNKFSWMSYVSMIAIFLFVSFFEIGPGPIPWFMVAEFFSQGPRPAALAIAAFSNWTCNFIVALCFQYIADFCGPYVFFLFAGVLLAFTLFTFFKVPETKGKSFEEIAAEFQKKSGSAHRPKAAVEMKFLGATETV
Protocol: HEK293 cells were engineered to stably express either human GLUT1, GLUT2, GLUt3 or GLUT4 by transfection with the pReceiver-Lv105 plasmid, containing either hGLUT1, hGLUT2, hGLUT3, or hGLUT4 gene constructs with lipofectamine 2000, hGLUT1- hGLUT2- hGLUT3- or hGLUT4-overexpressing polyclonal populations were isolated under purinomycin selective pressure (1 μg/ml) and maintained in Dulbecco's modified Eagle's medium supplemented with 1 μg/ml purinomycin+10% foetal bovine serum (FBS).
60,000 cells per well were seeded overnight into poly-D-lysine coasted 96-well plates. […] 90 μl of test compounds were added in glucose-free uptake buffer and cells were incubated at 37° C. for 30 min.
Cells were then washed twice with ice-cold PBS and 100 μl of Microscint-20 was added per well. Glucose uptake was quantified with a scintillation counter. The half maximal inhibitory concentration (IC50) (a measure of the effectiveness of the test compound in inhibiting glucose uptake) was determined.

[2] = molecular target: T2, human GLUT1 (Homo sapiens, UniProt P11166); assay: [3H]-deoxy-D-glucose uptake assay, GLUT1; assay type: cell-based; conditions: [3H]-deoxy-D-glucose uptake in HEK293 cells stably expressing human GLUT1
T2 construct: expressed in transfected cells
T2 sequence (P11166 1-492): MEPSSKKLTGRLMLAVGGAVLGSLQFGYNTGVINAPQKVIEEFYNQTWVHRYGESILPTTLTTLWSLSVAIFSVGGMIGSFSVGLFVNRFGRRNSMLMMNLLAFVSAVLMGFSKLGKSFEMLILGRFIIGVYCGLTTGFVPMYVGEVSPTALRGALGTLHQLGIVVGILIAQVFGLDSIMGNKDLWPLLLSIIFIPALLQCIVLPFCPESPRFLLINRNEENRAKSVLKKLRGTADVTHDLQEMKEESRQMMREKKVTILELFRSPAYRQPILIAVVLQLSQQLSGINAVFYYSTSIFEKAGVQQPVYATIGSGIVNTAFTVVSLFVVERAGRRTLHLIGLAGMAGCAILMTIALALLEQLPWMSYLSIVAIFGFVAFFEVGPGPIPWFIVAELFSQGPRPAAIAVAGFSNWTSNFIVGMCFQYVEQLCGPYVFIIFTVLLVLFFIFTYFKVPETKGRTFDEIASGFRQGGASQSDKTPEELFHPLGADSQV
Outline: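 HEK293 cells stably overexpressing human GLUT1 or GLUT2, seeded at 60,000 per well, treated with compounds in glucose-free uptake buffer for 30 min at 37 °C. [3H]-deoxy-D-glucose uptake quantified by scintillation counting after ice-cold PBS washes; IC50 determined.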

Clc1ccc(-c2nc3ccc(C4COC4)cn3c2CN2CCOCC2)cc1 [Compound 298]
GLUT2 pIC50 [1]: +− (pIC50 < 4.00) | GLUT1 pIC50 [2]: ++ (pIC50 5.00-5.99)

CS(=O)(=O)N1CCN(Cc2c(-c3ccc(Cl)cc3Cl)nc3cnc(C4CC4)cn23)CC1 [Compound 330]
GLUT2 pIC50 [1]: ++ (pIC50 5.00-5.99) | GLUT1 pIC50 [2]: +++ (pIC50 ≧ 6.00)

CC(=O)N1CCN(Cc2c(-c3ccc(Cl)cc3)nc3ccc(-c4ccccn4)cn23)CC1 [Compound 295]
GLUT2 pIC50 [1]: +++ (pIC50 ≧ 6.00) | GLUT1 pIC50 [2]: +++ (pIC50 ≧ 6.00)

O=C(Cc1c(-c2ccc(Cl)cc2)nc2ccc(-c3ccccc3)cn12)N1CCOCC1 [Compound 301]
GLUT2 pIC50 [1]: ++ (pIC50 5.00-5.99) | GLUT1 pIC50 [2]: +− (pIC50 < 4.00)

CC(=O)N1CCN(Cc2c(-c3ccc(Cl)cc3)nc3ccc(S(=O)(=O)N4CCCC4)cn23)CC1 [Compound 383]
GLUT2 pIC50 [1]: ++ (pIC50 5.00-5.99) | GLUT1 pIC50 [2]: +++ (pIC50 ≧ 6.00)

CC(=O)N1CCN(Cc2c(-c3ccc(Cl)cc3Cl)nc3ccc(N4CCCCS4(=O)=O)cn23)CC1 [Compound 354]
GLUT2 pIC50 [1]: +++ (pIC50 ≧ 6.00) | GLUT1 pIC50 [2]: +++ (pIC50 ≧ 6.00)

CC(C)c1cn2c(CN3CCOCC3)c(-c3ccc(Cl)cc3)nc2cn1 [Compound 217]
GLUT2 pIC50 [1]: +++ (pIC50 ≧ 6.00) | GLUT1 pIC50 [2]: +++ (pIC50 ≧ 6.00)

Clc1ccc(-c2nc3ccc(-c4ccccc4)cn3c2CN2CCSCC2)cc1 [Compound 352]
GLUT2 pIC50 [1]: +− (pIC50 < 4.00) | GLUT1 pIC50 [2]: +− (pIC50 < 4.00)

CC(=O)N1CCN(Cc2c(-c3ccc(Cl)cc3)nc3cnc(-c4ccccc4C#N)cn23)CC1 [Compound 224]
GLUT2 pIC50 [1]: +++ (pIC50 ≧ 6.00) | GLUT1 pIC50 [2]: +++ (pIC50 ≧ 6.00)

N#Cc1cccc(F)c1-c1ccc2nc(-c3ccc(Cl)cc3)c(CN3CCOCC3)n2c1 [Compound 236]
GLUT2 pIC50 [1]: +++ (pIC50 ≧ 6.00) | GLUT1 pIC50 [2]: +++ (pIC50 ≧ 6.00)

Cc1ccc2nc(-c3ccccc3)c(CN3CCNC(=O)C3)n2c1 [Compound 30]
GLUT1 pIC50 [2]: +− (pIC50 < 4.00)

Fc1cccc(-c2ccc3nc(-c4ccc(Cl)cc4)c(CN4CCOCC4)n3c2)c1 [Compound 81]
GLUT1 pIC50 [2]: + (pIC50 4.00-4.99)

Fc1cc(Cl)ccc1-c1nc2ccc(-c3ccccc3)cn2c1CN1CCOCC1 [Compound 249]
GLUT1 pIC50 [2]: ++ (pIC50 5.00-5.99)

O=C(c1c(-c2ccc(Cl)cc2)nc2ccc(-c3ccccc3)cn12)N1CCOCC1 [Compound 282]
GLUT1 pIC50 [2]: +− (pIC50 < 4.00)

Clc1ccc(-c2nc3ccc(-c4ccccc4)cn3c2CN2CCOCC2)cc1 [Compound 1]
GLUT1 pIC50 [2]: ++ (pIC50 5.00-5.99)

OC(c1c(-c2ccc(Cl)cc2)nc2ccc(-c3ccccc3)cn12)C1CCCN1 (stereo not drawn) [Compound 245]
GLUT1 pIC50 [2]: +− (pIC50 < 4.00)

Cn1cc(C(=O)N2CCN(Cc3c(-c4ccc(Cl)cc4)nc4ccc(-c5ccccc5)cn34)CC2)cn1 [Compound 243]
GLUT1 pIC50 [2]: +++ (pIC50 ≧ 6.00)

O=C1CN(Cc2c(-c3ccc(Cl)cc3)nc3ccc(-c4ccccc4)cn23)CCN1 [Compound 130]
GLUT1 pIC50 [2]: ++ (pIC50 5.00-5.99)

CC(C)CC(=O)N1CCN(Cc2c(-c3ccc(Cl)cc3)nc3ccc(-c4ccccc4)cn23)CC1 [Compound 43]
GLUT1 pIC50 [2]: +++ (pIC50 ≧ 6.00)

COc1ccc(NC(=O)N2CCN(Cc3c(-c4ccc(Cl)cc4)nc4ccc(-c5ccccc5)cn34)CC2)cc1 [Compound 68]
GLUT1 pIC50 [2]: + (pIC50 4.00-4.99)

O=C(c1ccc(F)cc1)N1CCN(Cc2c(-c3ccc(Cl)cc3)nc3cnc(-c4ccccc4)cn23)CC1 [Compound 168]
GLUT1 pIC50 [2]: +++ (pIC50 ≧ 6.00)

COc1ccccc1C(=O)N1CCN(Cc2c(-c3ccc(Cl)cc3)nc3ccc(-c4ccccc4)cn23)CC1 [Compound 128]
GLUT1 pIC50 [2]: +++ (pIC50 ≧ 6.00)

COc1cccc(-c2nc3ccc(-c4ccccc4F)cn3c2CN2CCN(C(=O)C3CCC3)CC2)c1 [Compound 189]
GLUT1 pIC50 [2]: +++ (pIC50 ≧ 6.00)

Clc1ccc(-c2nc3ccc(-c4cncnc4)cn3c2CN2CCOCC2)cc1 [Compound 110]
GLUT1 pIC50 [2]: + (pIC50 4.00-4.99)

O=C(c1cnccn1)N1CCN(Cc2c(-c3ccc(Cl)cc3)nc3cnc(C4CC4)cn23)CC1 [Compound 255]
GLUT1 pIC50 [2]: +++ (pIC50 ≧ 6.00)

COc1ccc(C(=O)N2CCN(Cc3c(-c4ccc(F)cc4)nc4ccc(-c5ccccc5)cn34)CC2)cc1 [Compound 70]
GLUT1 pIC50 [2]: +++ (pIC50 ≧ 6.00)

O=C1CN(Cc2c(-c3ccc(Cl)cc3)nc3cnc(C4CC4)cn23)CCN1 [Compound 288]
GLUT1 pIC50 [2]: +++ (pIC50 ≧ 6.00)

O=C(c1cccc(F)c1)N1CCCN(Cc2c(-c3ccc(Cl)cc3)nc3ccc(-c4ccccc4)cn23)CC1 [Compound 169]
GLUT1 pIC50 [2]: ++ (pIC50 5.00-5.99)

CCS(=O)(=O)N1CCN(Cc2c(-c3cccc(OC)c3)nc3ccc(-c4ccccc4)cn23)CC1 [Compound 25]
GLUT1 pIC50 [2]: ++ (pIC50 5.00-5.99)

CS(=O)(=O)Nc1ccc2nc(-c3ccc(Cl)cc3)c(CN3CCNC(=O)C3)n2c1 [Compound 289]
GLUT1 pIC50 [2]: +++ (pIC50 ≧ 6.00)

Cc1ccc(-c2nc3ccc(-c4ccccc4)cn3c2CN2CCOCC2)cc1 [Compound 157]
GLUT1 pIC50 [2]: ++ (pIC50 5.00-5.99)

O=C(c1cccs1)N1CCN(Cc2c(-c3ccc([N+](=O)[O-])cc3)nc3ccc(-c4ccccc4)cn23)CC1 [Compound 13]
GLUT1 pIC50 [2]: +++ (pIC50 ≧ 6.00)

O=C(C1CCCC1)N1CCN(Cc2c(-c3ccc(Cl)cc3)nc3ccc(-c4ccccc4)cn23)CC1 [Compound 47]
GLUT1 pIC50 [2]: +++ (pIC50 ≧ 6.00)

Cc1ccc2nc(-c3ccccc3)c(CN3CCSCC3)n2c1 [Compound 6]
GLUT1 pIC50 [2]: +− (pIC50 < 4.00)

O=C(C1CC1)N1CCN(Cc2c(-c3cccc([N+](=O)[O-])c3)nc3ccc(-c4ccccc4)cn23)CC1 [Compound 56]
GLUT1 pIC50 [2]: ++ (pIC50 5.00-5.99)

COc1cccc(-c2nc3ccc(-c4ccccc4)cn3c2CN2CCN(C(=O)CC(C)(C)C)CC2)c1 [Compound 65]
GLUT1 pIC50 [2]: ++ (pIC50 5.00-5.99)

CCN(CC)C(=O)c1ccc2nc(-c3ccc(Cl)cc3)c(CN3CCOCC3)n2c1 [Compound 117]
GLUT1 pIC50 [2]: + (pIC50 4.00-4.99)

Clc1ccc(-c2nc3ccc(C4CC4)cn3c2CN2CCOCC2)cc1 [Compound 87]
GLUT1 pIC50 [2]: ++ (pIC50 5.00-5.99)

O=C(C1COC1)N1CCN(Cc2c(-c3ccc(Cl)cc3)nc3cnc(C4CC4)cn23)CC1 [Compound 274]
GLUT1 pIC50 [2]: +++ (pIC50 ≧ 6.00)

O=C(CO)N1CCN(Cc2c(-c3ccc(Cl)cc3)nc3ccc(-c4ccccc4)cn23)CC1 [Compound 277]
GLUT1 pIC50 [2]: +++ (pIC50 ≧ 6.00)

c1ccc(-c2ccc3nc(-c4cccnc4)c(CN4CCOCC4)n3c2)cc1 [Compound 139]
GLUT1 pIC50 [2]: + (pIC50 4.00-4.99)

O=C(c1cocn1)N1CCN(Cc2c(-c3ccc(Cl)cc3)nc3ccc(-c4ccccc4)cn23)CC1 [Compound 229]
GLUT1 pIC50 [2]: +++ (pIC50 ≧ 6.00)

CCNC(=O)c1nc2ccc(-c3ccccc3)cn2c1CN1CCOCC1 [Compound 78]
GLUT1 pIC50 [2]: +− (pIC50 < 4.00)

O=C(c1cscn1)N1CCN(Cc2c(-c3ccc(Cl)cc3)nc3cnc(C4CC4)cn23)CC1 [Compound 267]
GLUT1 pIC50 [2]: +++ (pIC50 ≧ 6.00)

O=C(C1COC1)N1CCN(Cc2c(-c3ccc(Cl)cc3)nc3ccc(-c4ncon4)cn23)CC1 [Compound 285]
GLUT1 pIC50 [2]: +++ (pIC50 ≧ 6.00)

O=S(=O)(c1cccc(F)c1)N1CCN(Cc2c(-c3ccc(Cl)cc3)nc3ccc(-c4ccccc4)cn23)CC1 [Compound 90]
GLUT1 pIC50 [2]: +− (pIC50 < 4.00)

Clc1ccc(-c2nc3ccc(-c4ccccc4)cn3c2CN2CCNCC2)cc1 [Compound 89]
GLUT1 pIC50 [2]: + (pIC50 4.00-4.99)

Source: patent US20160120863A1, “SLC2A TRANSPORTER INHIBITORS” (IOMET PHARMA LTD., priority 2013, published 2016)
